Assay results from ChEMBL document CHEMBL5465560, “Selectivity Literature for EUbOPEN Chemogenomic Library” (2024).

Tests used:
[1] = target: Serine/threonine-protein kinase MARK2 (Homo sapiens) (UniProt Q7KZI7); assay: Selectivity interaction (ActivX KiNativ screen (kinase selectivity in THP-1 cell lysates)) EUB0000639a MARK2; assay type: subcellular; conditions: lysate, at 5 µM
[2] = target: T1, cGMP-dependent protein kinase 2 (Homo sapiens) (UniProt Q13237); assay: Selectivity interaction (ProQinase) EUB0000171b PRKG2
T1 sequence (whole entry): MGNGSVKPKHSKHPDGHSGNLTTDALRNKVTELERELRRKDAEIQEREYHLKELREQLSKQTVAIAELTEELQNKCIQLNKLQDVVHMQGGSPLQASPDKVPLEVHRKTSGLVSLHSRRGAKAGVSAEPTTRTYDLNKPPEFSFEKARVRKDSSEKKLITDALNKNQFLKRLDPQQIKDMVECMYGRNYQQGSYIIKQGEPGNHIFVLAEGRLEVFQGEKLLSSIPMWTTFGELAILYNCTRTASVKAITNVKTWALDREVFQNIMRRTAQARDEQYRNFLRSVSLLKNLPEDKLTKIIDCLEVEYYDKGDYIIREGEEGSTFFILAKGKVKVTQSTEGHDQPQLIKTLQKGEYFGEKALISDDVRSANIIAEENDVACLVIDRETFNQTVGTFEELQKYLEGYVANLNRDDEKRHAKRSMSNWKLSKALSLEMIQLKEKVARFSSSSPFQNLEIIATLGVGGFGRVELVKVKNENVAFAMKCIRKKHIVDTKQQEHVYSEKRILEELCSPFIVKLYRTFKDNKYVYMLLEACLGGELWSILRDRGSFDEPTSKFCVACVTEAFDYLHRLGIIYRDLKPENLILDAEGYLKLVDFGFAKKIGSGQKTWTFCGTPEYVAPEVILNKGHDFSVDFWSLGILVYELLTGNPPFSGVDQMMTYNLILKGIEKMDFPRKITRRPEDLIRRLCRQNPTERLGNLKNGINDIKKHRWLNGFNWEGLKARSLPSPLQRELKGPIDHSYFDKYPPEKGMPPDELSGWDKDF

[3] = target: T2, cAMP-dependent protein kinase catalytic subunit PRKX (Homo sapiens) (UniProt P51817); assay: Selectivity interaction (Kinase screening (Nanosyn)) EUB0000604a PRKX
T2 sequence (whole entry): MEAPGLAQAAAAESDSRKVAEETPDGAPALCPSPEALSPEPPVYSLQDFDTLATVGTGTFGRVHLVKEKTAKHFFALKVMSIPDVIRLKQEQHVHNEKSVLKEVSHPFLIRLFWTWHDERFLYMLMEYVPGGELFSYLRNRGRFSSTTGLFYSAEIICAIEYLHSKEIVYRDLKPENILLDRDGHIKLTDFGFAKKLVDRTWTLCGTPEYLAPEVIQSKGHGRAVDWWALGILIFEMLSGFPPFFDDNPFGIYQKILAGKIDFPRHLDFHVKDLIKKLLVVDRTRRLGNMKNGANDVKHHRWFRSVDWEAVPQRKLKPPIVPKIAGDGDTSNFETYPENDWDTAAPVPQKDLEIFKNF

[4] = target: T3, Serine/threonine-protein kinase TNNI3K (Homo sapiens) (UniProt Q59H18); assay: Selectivity interaction (KinomeScan (DiscoverX)) EUB0000655a TNNI3K; conditions: at 10 µM
T3 sequence (whole entry): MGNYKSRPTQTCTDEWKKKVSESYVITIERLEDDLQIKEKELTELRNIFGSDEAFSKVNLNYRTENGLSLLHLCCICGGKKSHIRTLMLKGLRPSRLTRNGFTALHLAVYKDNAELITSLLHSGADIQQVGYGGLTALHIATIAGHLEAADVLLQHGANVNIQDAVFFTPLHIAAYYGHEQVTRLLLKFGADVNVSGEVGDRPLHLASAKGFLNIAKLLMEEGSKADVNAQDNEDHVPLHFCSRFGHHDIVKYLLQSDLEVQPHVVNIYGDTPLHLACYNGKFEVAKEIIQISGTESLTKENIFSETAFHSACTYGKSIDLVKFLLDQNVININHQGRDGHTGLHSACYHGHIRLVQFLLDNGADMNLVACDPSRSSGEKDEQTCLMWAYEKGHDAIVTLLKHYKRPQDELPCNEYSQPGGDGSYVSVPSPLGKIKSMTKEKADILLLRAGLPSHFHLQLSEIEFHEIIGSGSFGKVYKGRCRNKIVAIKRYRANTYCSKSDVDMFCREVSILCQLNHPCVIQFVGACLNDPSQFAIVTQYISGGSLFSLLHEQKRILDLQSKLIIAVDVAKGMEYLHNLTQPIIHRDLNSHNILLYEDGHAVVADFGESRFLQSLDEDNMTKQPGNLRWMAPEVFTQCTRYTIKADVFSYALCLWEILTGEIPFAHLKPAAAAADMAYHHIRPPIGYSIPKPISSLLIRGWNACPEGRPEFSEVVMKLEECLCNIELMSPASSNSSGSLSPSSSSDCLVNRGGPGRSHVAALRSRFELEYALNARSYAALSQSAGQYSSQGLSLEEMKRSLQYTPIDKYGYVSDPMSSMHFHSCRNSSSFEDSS

[5] = target: Casein kinase I isoform gamma-3 (Homo sapiens) (UniProt Q9Y6M4); assay: Selectivity interaction (KinomeScan (DiscoverX)) EUB0000092b CSNK1G3; conditions: at 10 µM
Chain of Casein kinase I isoform gamma-3 (Homo sapiens) (Q9Y6M4 whole entry, looked up, canonical isoform): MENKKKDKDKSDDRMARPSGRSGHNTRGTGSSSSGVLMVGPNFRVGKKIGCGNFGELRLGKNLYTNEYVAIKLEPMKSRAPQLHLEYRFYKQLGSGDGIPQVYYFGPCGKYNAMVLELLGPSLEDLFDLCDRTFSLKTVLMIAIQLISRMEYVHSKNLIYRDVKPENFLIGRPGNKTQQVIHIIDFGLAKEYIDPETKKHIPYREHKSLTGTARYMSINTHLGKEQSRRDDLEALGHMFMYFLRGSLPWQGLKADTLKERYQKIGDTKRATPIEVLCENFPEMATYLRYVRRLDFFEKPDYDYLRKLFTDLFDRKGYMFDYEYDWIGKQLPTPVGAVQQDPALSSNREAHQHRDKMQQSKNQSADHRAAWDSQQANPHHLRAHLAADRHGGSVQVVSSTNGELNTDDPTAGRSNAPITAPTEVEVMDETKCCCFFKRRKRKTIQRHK

[6] = target: T4, NUAK family SNF1-like kinase 2 (Homo sapiens) (UniProt Q9H093); conditions: at 10 µM
T4 sequence (whole entry): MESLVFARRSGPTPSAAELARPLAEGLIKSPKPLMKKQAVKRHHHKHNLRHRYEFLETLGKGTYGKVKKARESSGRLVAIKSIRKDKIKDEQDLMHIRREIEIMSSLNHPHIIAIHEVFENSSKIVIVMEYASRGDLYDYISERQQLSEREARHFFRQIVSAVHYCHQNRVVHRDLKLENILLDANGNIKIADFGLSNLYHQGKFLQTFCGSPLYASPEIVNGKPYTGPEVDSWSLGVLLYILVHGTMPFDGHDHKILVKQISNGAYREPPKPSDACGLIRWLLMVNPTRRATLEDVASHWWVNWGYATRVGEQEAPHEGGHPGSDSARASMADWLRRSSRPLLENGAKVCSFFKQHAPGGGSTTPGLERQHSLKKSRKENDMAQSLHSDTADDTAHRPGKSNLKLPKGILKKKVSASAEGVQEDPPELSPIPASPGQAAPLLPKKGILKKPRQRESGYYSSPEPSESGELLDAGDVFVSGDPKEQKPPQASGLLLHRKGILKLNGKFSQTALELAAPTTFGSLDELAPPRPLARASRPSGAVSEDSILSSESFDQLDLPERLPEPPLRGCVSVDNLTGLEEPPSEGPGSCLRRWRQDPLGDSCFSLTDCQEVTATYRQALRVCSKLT

Chain of Serine/threonine-protein kinase MARK2 (Homo sapiens) (Q7KZI7 whole entry): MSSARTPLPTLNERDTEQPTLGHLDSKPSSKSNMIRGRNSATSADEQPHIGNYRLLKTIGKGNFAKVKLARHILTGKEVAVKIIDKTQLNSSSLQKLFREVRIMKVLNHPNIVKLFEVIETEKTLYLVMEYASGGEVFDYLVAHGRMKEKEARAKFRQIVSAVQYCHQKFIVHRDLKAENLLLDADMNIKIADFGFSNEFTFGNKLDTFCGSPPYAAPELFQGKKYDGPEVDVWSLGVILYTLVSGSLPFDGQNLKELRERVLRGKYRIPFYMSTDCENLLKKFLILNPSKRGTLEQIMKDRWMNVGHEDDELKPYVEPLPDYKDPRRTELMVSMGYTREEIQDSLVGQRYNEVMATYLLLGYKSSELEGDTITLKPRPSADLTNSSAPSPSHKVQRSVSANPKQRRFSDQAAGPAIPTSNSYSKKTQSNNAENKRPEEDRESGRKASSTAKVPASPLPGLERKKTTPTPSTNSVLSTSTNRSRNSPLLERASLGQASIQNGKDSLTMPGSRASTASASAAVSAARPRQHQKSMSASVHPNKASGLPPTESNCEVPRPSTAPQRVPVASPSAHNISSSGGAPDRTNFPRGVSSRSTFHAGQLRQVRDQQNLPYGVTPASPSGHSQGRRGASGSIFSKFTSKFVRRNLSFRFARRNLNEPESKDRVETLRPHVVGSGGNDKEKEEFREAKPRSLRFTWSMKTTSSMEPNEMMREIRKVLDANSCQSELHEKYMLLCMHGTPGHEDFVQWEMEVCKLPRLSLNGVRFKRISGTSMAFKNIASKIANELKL

CC[C@@H]1[C@H](F)C(=O)N[C@@H]1COc1nccc2cc(C(N)=O)c(OC)cc12 [ZIMLOVISERTIB]
% of inhibition [1]: 51.5%

C=CC(=O)Nc1cccc(C(=O)Nc2ccc(Nc3cc(-c4[nH]c(SC)nc4C)ccn3)cc2)c1
% of control ([2]; at 1 µM): 84% | % of control ([2]; at 5 µM): 81%

Cc1cnc(Nc2ccc(F)cc2Cl)nc1-c1c[nH]c(C(=O)N[C@H](CO)c2cccc(Cl)c2)c1
% of inhibition [3]: 3%

CN(C)CCOc1ccc(-c2nc(-c3ccncc3)c(-c3ccc4c(c3)CC/C4=N\O)[nH]2)cc1
% of control [4]: 76%

CCC(=O)N1CCN(c2ccc(-n3c(=O)ccc4cnc5ccc(-c6cnc7ccccc7c6)cc5c43)cc2C(F)(F)F)CC1
% of control [5]: 100%

Cc1cc([C@@H](C)Nc2ccccc2C(=O)O)c2nc(N3CCOCC3)cc(=O)n2c1 [AZD-6482]
% of control [6]: 84%
